This note sets out measurements from US5739278A, “Compositions for protein tyrosine phosphatases” (University of Washington, priority 1995, dated 1998).

Common to all, as to experiment: Phosphatase assay with ENDY(P)INASL as substrate
Holding throughout (format): biochemical

The target of assay [1] is T1, PTP1B (Homo sapiens, UniProt P18031).
T1 construct: The 37 kDa form of PTP1B; from tissue; host or cells: placenta
T1 sequence (P18031 1-321 limits assumed): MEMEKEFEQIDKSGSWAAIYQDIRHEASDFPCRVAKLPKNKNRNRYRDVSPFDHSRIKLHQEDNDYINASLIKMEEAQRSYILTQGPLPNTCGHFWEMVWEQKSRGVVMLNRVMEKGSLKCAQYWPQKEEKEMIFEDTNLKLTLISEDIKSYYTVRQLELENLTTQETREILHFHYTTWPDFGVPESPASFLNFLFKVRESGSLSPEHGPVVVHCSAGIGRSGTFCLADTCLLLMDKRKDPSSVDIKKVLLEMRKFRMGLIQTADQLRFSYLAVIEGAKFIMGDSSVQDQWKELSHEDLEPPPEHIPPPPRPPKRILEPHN
The protocol: (§1) The tyrosine phosphatases TC.PTP, TCΔC11.PTP, and RPTPα were purified from infected Sf9 cells as described recently (Zander et al., Biochemistry 30: 6964-6970, 1991; Daum et al., J. Biol. Chem. 266: 12211-12215, 1991). The 37 kDa form of PTP1B and CD45 were purified from placenta and spleen, respectively (according to Tonks et al., J. Biol. Chem. 263: 6722-6730, 1988; Tonks et al., Biochemistry 27: 8695-8701, 1988).
(§2) Phosphatase assays with ENDY(P)INASL were performed in buffer M6. Aliquots of 30 μl or 60 μl containing the phosphopeptide, the phosphatase (-beads) and effectors were incubated for 10 minutes at 30° C. The reaction was stopped by adding 200 μl of a suspension of 10% activated, acid-washed Norit A charcoal (v/v) in 0.9N HCl, 0.1M pyrophosphate and 2 mM NaH2 PO4 (according to Streuli et al., Proc. Natl. Acad. Sci. USA 86: 8698-8702, 1989). The mixture was cleared by 10-minute centrifugation and the radioactivity of 150 μl of the supernate was determined. Assays with MBP and RCML were performed as described in Tonks et al., J. Biol. Chem. 263: 6722-6730, 1988. Protein concentration was determined with BSA as standard (Bradford, Anal. Biochem. 72: 248-254, 1976).

Assay [2] concerns the target T2, CD45 (Homo sapiens, UniProt P08575).
T2 construct: CD45 were purified from placenta and spleen, respectively; from tissue; host or cells: spleen
T2 sequence (P08575 26-1306): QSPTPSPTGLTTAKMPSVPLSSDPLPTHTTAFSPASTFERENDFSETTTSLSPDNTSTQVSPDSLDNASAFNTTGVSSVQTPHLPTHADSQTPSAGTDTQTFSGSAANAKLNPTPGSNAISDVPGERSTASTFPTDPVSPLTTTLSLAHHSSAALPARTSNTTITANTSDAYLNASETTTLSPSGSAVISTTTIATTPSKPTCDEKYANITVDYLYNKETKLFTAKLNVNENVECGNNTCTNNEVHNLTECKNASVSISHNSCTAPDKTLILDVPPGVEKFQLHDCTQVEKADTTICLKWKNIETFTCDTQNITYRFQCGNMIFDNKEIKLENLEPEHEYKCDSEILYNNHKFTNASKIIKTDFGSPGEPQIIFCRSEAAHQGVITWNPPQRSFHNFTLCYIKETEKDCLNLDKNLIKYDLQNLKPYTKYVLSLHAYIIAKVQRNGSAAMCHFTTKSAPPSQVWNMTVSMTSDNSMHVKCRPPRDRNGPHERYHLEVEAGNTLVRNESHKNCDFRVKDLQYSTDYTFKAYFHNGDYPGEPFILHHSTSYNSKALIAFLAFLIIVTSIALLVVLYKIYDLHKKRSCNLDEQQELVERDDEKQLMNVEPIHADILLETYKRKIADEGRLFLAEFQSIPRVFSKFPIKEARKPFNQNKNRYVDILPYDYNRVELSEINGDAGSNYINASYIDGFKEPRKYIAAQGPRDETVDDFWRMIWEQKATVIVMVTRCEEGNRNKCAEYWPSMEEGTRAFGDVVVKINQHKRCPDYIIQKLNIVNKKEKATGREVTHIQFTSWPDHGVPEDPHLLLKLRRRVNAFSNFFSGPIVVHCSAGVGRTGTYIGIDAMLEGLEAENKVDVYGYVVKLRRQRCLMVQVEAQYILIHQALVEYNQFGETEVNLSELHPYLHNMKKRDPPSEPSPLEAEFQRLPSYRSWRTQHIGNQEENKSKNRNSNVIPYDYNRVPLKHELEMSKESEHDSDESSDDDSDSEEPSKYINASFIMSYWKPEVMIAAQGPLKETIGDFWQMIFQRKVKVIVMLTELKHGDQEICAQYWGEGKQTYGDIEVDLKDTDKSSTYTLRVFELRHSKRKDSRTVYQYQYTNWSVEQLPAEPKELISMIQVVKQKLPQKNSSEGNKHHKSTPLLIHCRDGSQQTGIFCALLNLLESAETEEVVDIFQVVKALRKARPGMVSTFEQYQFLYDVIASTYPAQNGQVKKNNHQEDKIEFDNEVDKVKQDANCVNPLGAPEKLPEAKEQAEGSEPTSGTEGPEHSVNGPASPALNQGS
The protocol:
as §1, §2

In assay [3] the target is T3, TC.PTP (Homo sapiens, UniProt P17706).
T3 construct: made in house; host or cells: Sf9 cells (baculovirus)
T3 sequence (P17706 1-415): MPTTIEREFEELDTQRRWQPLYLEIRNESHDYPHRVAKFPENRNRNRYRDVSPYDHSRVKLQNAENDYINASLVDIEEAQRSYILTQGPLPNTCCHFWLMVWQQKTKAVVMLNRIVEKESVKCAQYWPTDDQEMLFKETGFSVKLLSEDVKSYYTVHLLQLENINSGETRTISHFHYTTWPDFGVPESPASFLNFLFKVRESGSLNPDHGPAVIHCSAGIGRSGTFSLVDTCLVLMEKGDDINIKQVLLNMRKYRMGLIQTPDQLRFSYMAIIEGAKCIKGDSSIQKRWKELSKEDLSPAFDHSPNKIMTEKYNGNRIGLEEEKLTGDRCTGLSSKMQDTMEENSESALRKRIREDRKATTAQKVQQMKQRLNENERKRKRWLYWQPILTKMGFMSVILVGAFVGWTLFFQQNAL
The settings on record: TC.PTP. The procedure:
as §1, §2

In assay [4] the target is T4, RPTPα (Homo sapiens, UniProt P18433).
T4 construct: made in house; host or cells: Sf9 cells (baculovirus)
The procedure: as §1, §2

Assay [5] deals with T5, TCΔC11.PTP (Homo sapiens, UniProt P17706).
T5 construct: both the wild type and truncated forms of the T-cell phosphatase; made in house; host or cells: Sf9 cells (baculovirus)
T5 sequence (P17706 1-317 limits assumed): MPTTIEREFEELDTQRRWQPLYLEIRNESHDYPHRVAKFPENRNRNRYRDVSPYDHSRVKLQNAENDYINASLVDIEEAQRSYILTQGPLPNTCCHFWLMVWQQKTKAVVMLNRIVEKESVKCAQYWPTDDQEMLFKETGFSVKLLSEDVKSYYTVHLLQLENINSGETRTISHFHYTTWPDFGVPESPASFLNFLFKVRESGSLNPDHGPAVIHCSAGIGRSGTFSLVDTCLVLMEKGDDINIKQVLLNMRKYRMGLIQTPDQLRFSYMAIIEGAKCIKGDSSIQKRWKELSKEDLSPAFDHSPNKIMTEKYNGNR
The protocol: as §1, §2

The mark [6] stands for this setting: 10 min, effector 0.1 mM, read-out: Phosphatase activity in percent of the value obtained in the absence of effectors.
Where [7] appears, read: 10 min, effector 2.0 mM, read-out: Phosphatase activity in percent of the value obtained in the absence of effectors.
Setting [8] is: 10 min, effector 5.0 mM, read-out: Phosphatase activity in percent of the value obtained in the absence of effectors.
Setting [9] is: 10 min, effector 0.5 mM, read-out: Phosphatase activity in percent of the value obtained in the absence of effectors.
Setting [10] is: 10 min, effector 1.0 mM, read-out: Phosphatase activity in percent of the value obtained in the absence of effectors.

The structures appear in SMILES notation.

T4 sequence (P18433 20-802): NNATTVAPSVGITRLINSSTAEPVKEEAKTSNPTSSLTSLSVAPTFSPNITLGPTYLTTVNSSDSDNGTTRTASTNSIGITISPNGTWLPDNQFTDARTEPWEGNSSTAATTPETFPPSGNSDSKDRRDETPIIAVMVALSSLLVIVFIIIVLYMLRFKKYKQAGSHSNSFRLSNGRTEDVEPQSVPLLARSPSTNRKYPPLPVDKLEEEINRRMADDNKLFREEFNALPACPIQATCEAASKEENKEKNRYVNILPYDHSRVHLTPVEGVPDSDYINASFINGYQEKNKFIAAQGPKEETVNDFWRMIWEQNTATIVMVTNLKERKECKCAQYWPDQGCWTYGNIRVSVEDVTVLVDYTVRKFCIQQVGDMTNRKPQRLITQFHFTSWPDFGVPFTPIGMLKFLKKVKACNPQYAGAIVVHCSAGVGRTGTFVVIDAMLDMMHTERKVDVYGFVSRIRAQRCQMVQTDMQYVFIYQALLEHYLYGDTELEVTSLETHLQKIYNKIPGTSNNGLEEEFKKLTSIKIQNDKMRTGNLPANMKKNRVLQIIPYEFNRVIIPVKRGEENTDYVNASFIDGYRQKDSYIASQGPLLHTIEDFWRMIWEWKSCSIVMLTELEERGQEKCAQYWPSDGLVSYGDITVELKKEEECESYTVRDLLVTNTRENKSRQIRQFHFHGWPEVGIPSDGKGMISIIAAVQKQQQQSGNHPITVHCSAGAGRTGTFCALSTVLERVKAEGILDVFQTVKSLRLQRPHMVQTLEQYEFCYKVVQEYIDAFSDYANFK

With `[Mn+2]` [Mn^2+], the “Phosphatase activity in percent of the value obtained in the absence of effectors” value (shortened to “Phosphatase activity in percent”) amounted to 26% in assay [1] (effector 1.0 mM); 23% in assay [1] (effector 3.0 mM); 20% in assay [1] (effector 5.0 mM); 78% in assay [2] (effector 1.0 mM); 56% in assay [2] (effector 3.0 mM); 44% in assay [2] (effector 5.0 mM). Besides, the “Phosphatase activity in percent” value in assay [3] (effector 1.0 mM) came to 49%; in assay [3] (effector 3.0 mM), 30%; in assay [3] (effector 5.0 mM) it was 21%; in assay [4] (effector 1.0 mM), 60%; in assay [4] (effector 3.0 mM), 38%; in assay [4] (effector 5.0 mM), 21%. In addition, the “Phosphatase activity in percent” value in assay [5] (effector 1.0 mM) amounted to 34%; in assay [5] (effector 3.0 mM), 22%; in assay [5] (effector 5.0 mM), 15%.

`[Zn+2]` [Zn^2+]: the “Phosphatase activity in percent” value worked out at 65% in assay [1] (effector 0.01 mM); 17% in assay [1] (effector 0.1 mM); 6% in assay [1] (effector 1.0 mM); 92% in assay [2] (effector 0.01 mM); 53% in assay [2] (effector 0.1 mM); 3% in assay [2] (effector 1.0 mM). The “Phosphatase activity in percent” value in assay [3] (effector 0.01 mM) amounted to 61%; in assay [3] (effector 0.1 mM), 26%; in assay [3] (effector 1.0 mM), 8%; in assay [4] (effector 0.01 mM), 99%; in assay [4] (effector 0.1 mM), 77%; in assay [4] (effector 1.0 mM), 4%. For the same compound, the “Phosphatase activity in percent” value worked out at 61% in assay [5] (effector 0.01 mM), 54% in assay [5] (effector 0.1 mM) and 21% in assay [5] (effector 1.0 mM).

As for `NCCCCNCCCN` [spermidine], the results for the “Phosphatase activity in percent” value in assay [1] (effector 0.1 mM), in assay [1] (effector 2.0 mM) and in assay [1] (effector 5.0 mM) were 89%, 94% and 92%, respectively. Moreover, the remaining activity at 100 µM in assay [2] (setting [6]) is 103%; in assay [3] (setting [6]), 92%; in assay [4] (setting [6]) it was 72%; in assay [5] (setting [6]), 67%. The remaining activity at 2000 µM in assay [2] (setting [7]) was 92%; in assay [3] (setting [7]), 88%; in assay [4] (setting [7]), 60%; in assay [5] (setting [7]), 65%. The remaining activity at 5000 µM was 83% in assay [2] (setting [8]), 91% in assay [3] (setting [8]), 34% in assay [4] (setting [8]) and 66% in assay [5] (setting [8]).

With `NCCCNCCCCNCCCN` [spermine], the “Phosphatase activity in percent” value in assay [1] (effector 0.1 mM) came to 87%; in assay [1] (effector 0.5 mM), 89%; in assay [1] (effector 1.0 mM), 82%. For the same compound, the remaining activity at 100 µM in assay [2] (setting [6]) came out at 117%; in assay [3] (setting [6]), 119%; in assay [4] (setting [6]), 89%; in assay [5] (setting [6]), 81%. The remaining activity at 500 µM was found to be 100% in assay [2] (setting [9]), 109% in assay [3] (setting [9]), 57% in assay [4] (setting [9]) and 60% in assay [5] (setting [9]). The remaining activity at 1000 µM is 85% in assay [2] (setting [10]), 82% in assay [3] (setting [10]), 41% in assay [4] (setting [10]) and 55% in assay [5] (setting [10]).
